We go through two compounds from article PMC7356761 (Molecules, 2020).

One assay relates to H3255 cells (EGFR L858R). Kind of assay: Cell viability assay (WST-8), H3255. The format is cell-based. To be noted: Homo sapiens, NCI-H3255, WST-8, 48 h. A general note: Tetrazolium dyes change colour on reduction, which living cells bring about.
Assay [1] relates to H1975 cells (EGFR L858R/T790M). Details: method as in PMID 27827863. To be noted: previous study ref 25; cited from earlier work.
The subject of assay [2] is H441 cells (wild-type EGFR). Put plainly: Cell viability assay (WST-8), H441. Particulars: WST-8, 48 h.
The next assay has as its target wild-type EGFR-TK (Homo sapiens, UniProt P00533). Put plainly: EGFR-TK inhibition assay (ADP-Glo), wild-type. The format is biochemical. Particulars: EGFR tyrosine kinase wild-type; read-out: IC50 Value, Wild-Type (WT). For orientation: ADP-Glo first removes unused ATP, then detects ADP through luciferase.
For assay [3], the target named is EGFR-TK with L858R/T790M mutation (Homo sapiens, UniProt P00533, L858R/T790M). Kind of assay: EGFR-TK inhibition assay (ADP-Glo), L858R/T790M. The format is biochemical.

As a reminder, the IC50 is the concentration at which inhibition is half-maximal. Consider `C=CC(=O)Nc1cccc(Nc2nc(Nc3ccc(N4CCN(C(C)=O)CC4)cc3OC)ncc2C(F)(F)F)c1` [CO-1686, Rociletinib, reference compound], for which the IC50 is 0.15 ± 0.02 µM in the assay with H3255 cells (EGFR L858R), 0.137 µM in assay [1] and 0.26 ± 0.04 µM in assay [2].
Turning to `C=CC(=O)Nc1cc(I)cc(Nc2nc(Nc3ccc(N4CCN(C(C)=O)CC4)cc3OC)ncc2C(F)(F)F)c1` [compound 10, N-(3-{[2-({4-[4-acetylpiperazin-1-yl]-2-methoxyphenyl}amino)-5-(trifluoromethyl)pyrimidin-4-yl]amino}-5-iodophenyl)acrylamide], the IC50 was 0.5 ± 0.21 µM in the assay with H3255 cells (EGFR L858R), > 10 µM on wild-type EGFR-TK, 0.31 ± 0.15 µM in assay [3] (EGFR tyrosine kinase L858R/T790M) and 1.84 ± 0.44 µM in assay [2]. Moreover, the “SI (WT: L858R/T790M)” value in assay [3] (selectivity index, wild-type IC50 to L858R/T790M IC50) was >32.
